According to publication PMC8259865, “Design and green synthesis of novel quinolinone derivatives of potential anti-breast cancer activity against MCF-7 cell line targeting multi-receptor tyrosine kinases” (Journal of Enzyme Inhibition and Medicinal Chemistry, 2021):
Entries after “also recorded” stand apart in the source; their conditions may differ. Blank lines part the entries; values can stand above or below the molecule they belong to.

What was measured:
[1] = tested on: human breast cancer MCF-7 cell line; assay: MTT cytotoxicity assay against MCF-7 breast cancer cells; assay type: cell-based; details: for IC50: Homo sapiens, MCF7, MTT assay, MCF-7 cells, average of at least three independent experiments, read-out: Anticancer activity against MCF-7 cells IC50 mean ± SD
Text: MTT assay was used to evaluate the in vitro cytotoxicity of the new compounds against breast cancer cell lines MCF-7[38]. More details are present in the Supplementary file.
S1: In vitro cytotoxicity experiment
MTT assay was used to evaluate the in vitro cytotoxicity of the new compounds against breast cancer cell lines MCF-7 [39]. MTT assay depends on the reduction of the soluble 3-(4,5-methyl-2-thiazolyl)-2,5-diphenyl-2H-tetrazolium bromide (MTT) into a blue purple formazan product, mainly by mitochondrial reductase activity inside the living cells. The cells used in cytotoxicity […]
at 37 °C in a 5% CO 2 incubator. After 12 h, the test sampl e (2 μL) was added to the cells (2 × 10 4) in 96-well plates and cultured at 37 ◦C for 3 days. The cultured cells were mixed with 20 μL of MTT solution and incubated for 4 h at 37 °C. The supernatant was carefully removed from each well and 100 μL of DMSO we re added to each well to dissolve the formazan crystals which were formed by the cellular reduction of MTT. […]

normal WI38 cells = assay: MTT assay against normal WI38 cells (safety profile); assay type: cell-based, human; details: for IC50: Homo sapiens, WI-38, MTT assay, normal WI38 cells derived from lung tissues, read-out: IC50 against the normal WI38 cells mean ± SD; for IC50 against WI38 cells, fold higher than IC50 of staurosporine: relative to staurosporine; for IC50 against WI38 cells, fold higher than IC50 against cancer (MCF-7) cells: WI38 vs MCF-7
Text: One of the characteristics differentiating different anticancer agents from each other is the recurrence and severity of their side effects to the normal cells at their therapeutic doses. […].

MCF-7 cells [2] = assay: Annexin-V/PI apoptosis assay by flow cytometry; assay type: cell-based, human; details: compound at its IC50 concentration, 24 h
Protocol: (§1) Cell cycle analysis and apoptosis investigation were carried out by flow cytometry.[39]^,[40] […] After treatment with the tested compound, for 24 h, cell pellets were collected and centrifuged (300 g, 5 min).
Flow cytometry method[39]^,[49] has been used to detect the corresponding red (PI) and green (FITC) fluorescence. It has been noted that there was an increment in the percentages of the late apoptosis produced by the evaluated compounds 4b and 4j from 0.13% (control DMSO/MCF-7 cells) to 13.81% and 22.03%, respectively. Also, the tested compounds produced early apoptotic effects of 6.15% and 3.27% compared to 0.58% of the untreated MCF-7 cell with necrosis percent of 4.37% and 9.22%, respectively, vs. 0.66% produced by the DMSO control (Figures 4 and 5).

MCF-7 cells [3] = assay: Cell cycle analysis by flow cytometry; assay type: cell-based, human; details: for %G0–G1 / %G2/M / %Pre-G1 / %S: compound at its IC50 concentration, 24 h
Protocol: as §1
The induction of apoptosis is one of the most crucial tools that confirm the effectiveness of cancer therapy. Cell cycle checkpoints are G1 (restriction or start), S ([…]), and G2/M. One of the main functions of the anticancer therapeutics is stoppage of the cell division at these checkpoints.[51] […] The cells were stained with Annexin V/PI and examined using flow cytometry procedure.

PDGFR-α = assay: In vitro kinase inhibition assay, PDGFR-α; details: for IC50: read-out: PDGFR-α IC50
Text: (§2) The procedure of the used kits was done according to the manufacturer, s instructions.
(§3) Which are: EGFR, human epidermal growth factor receptor (HER2), PDGFR-α, and VEGFR-2.

HER-2 = HER-2 (Homo sapiens, UniProt P04626); assay: In vitro kinase inhibition assay, HER-2 (ADP-Glo Kinase Assay)
Text: as §2, §3

VEGFR-2 = VEGFR-2 (Homo sapiens, UniProt P35968); assay: In vitro kinase inhibition assay, VEGFR-2 (KDR Kinase Assay Kit)
Text: as §2, §3

EGFR = EGFR (Homo sapiens, UniProt P00533); assay: In vitro kinase inhibition assay, EGFR (Abcam Human In cell ELISA Kit)
Chain of EGFR (P00533 25-1210): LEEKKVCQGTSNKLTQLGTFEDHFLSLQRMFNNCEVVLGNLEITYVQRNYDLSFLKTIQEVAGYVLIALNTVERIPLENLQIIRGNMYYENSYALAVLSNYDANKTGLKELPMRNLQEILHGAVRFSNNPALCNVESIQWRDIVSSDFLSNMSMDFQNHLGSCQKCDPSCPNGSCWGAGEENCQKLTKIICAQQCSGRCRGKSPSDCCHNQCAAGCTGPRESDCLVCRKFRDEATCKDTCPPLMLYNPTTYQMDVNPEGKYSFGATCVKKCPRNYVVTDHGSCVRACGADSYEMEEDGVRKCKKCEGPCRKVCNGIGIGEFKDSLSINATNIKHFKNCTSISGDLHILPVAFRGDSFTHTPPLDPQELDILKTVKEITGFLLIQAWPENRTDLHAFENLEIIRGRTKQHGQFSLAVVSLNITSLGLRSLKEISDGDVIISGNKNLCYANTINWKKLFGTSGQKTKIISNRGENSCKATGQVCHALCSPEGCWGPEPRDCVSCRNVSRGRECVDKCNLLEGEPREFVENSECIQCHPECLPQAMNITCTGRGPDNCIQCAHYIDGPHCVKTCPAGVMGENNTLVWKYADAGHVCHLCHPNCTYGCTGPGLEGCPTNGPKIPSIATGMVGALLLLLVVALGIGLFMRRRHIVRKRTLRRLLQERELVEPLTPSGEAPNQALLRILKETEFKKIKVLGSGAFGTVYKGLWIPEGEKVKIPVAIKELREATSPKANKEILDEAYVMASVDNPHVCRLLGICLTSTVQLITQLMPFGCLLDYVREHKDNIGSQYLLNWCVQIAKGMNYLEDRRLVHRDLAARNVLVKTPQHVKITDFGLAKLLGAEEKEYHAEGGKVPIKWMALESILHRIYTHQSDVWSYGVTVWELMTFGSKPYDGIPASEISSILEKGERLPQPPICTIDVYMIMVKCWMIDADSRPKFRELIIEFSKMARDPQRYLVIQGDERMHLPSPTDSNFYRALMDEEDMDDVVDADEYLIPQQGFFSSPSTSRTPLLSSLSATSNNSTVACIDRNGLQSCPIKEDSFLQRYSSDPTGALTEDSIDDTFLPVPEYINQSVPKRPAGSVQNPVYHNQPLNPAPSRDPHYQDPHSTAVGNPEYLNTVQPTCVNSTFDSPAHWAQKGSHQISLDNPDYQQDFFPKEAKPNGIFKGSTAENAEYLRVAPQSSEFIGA
Text: as §2, §3

Chain of HER-2 (P04626 23-1255): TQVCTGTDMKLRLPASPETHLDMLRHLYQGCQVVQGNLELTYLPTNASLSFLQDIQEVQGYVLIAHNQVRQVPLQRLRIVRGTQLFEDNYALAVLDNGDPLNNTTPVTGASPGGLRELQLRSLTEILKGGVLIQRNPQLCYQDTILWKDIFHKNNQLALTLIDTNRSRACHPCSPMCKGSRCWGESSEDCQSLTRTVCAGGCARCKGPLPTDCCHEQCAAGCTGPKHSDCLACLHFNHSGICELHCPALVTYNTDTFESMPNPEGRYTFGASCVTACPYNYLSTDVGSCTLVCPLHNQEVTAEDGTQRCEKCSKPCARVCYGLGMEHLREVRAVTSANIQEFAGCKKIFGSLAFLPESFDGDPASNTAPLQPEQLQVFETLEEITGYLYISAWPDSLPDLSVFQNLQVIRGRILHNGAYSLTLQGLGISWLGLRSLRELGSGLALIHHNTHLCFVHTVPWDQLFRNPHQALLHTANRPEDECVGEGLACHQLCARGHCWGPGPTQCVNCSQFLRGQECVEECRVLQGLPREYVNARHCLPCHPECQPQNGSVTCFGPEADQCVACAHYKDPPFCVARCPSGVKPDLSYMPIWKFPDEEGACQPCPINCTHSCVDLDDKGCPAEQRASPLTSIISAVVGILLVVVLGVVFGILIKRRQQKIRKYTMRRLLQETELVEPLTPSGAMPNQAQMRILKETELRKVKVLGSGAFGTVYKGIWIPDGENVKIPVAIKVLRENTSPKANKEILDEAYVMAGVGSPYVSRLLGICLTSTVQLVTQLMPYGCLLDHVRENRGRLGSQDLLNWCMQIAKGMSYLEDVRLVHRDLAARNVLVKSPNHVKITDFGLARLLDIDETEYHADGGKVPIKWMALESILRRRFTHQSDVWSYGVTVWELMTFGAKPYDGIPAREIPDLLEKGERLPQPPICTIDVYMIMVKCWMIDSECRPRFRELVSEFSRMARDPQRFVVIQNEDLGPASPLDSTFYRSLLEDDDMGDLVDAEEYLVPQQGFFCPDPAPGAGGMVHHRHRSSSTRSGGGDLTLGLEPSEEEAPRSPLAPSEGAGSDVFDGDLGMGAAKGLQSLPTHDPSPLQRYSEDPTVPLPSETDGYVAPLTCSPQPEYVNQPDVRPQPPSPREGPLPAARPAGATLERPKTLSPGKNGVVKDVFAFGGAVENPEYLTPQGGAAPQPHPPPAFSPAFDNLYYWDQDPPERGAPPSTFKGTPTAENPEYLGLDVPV
Chain of VEGFR-2 (P35968 20-1356): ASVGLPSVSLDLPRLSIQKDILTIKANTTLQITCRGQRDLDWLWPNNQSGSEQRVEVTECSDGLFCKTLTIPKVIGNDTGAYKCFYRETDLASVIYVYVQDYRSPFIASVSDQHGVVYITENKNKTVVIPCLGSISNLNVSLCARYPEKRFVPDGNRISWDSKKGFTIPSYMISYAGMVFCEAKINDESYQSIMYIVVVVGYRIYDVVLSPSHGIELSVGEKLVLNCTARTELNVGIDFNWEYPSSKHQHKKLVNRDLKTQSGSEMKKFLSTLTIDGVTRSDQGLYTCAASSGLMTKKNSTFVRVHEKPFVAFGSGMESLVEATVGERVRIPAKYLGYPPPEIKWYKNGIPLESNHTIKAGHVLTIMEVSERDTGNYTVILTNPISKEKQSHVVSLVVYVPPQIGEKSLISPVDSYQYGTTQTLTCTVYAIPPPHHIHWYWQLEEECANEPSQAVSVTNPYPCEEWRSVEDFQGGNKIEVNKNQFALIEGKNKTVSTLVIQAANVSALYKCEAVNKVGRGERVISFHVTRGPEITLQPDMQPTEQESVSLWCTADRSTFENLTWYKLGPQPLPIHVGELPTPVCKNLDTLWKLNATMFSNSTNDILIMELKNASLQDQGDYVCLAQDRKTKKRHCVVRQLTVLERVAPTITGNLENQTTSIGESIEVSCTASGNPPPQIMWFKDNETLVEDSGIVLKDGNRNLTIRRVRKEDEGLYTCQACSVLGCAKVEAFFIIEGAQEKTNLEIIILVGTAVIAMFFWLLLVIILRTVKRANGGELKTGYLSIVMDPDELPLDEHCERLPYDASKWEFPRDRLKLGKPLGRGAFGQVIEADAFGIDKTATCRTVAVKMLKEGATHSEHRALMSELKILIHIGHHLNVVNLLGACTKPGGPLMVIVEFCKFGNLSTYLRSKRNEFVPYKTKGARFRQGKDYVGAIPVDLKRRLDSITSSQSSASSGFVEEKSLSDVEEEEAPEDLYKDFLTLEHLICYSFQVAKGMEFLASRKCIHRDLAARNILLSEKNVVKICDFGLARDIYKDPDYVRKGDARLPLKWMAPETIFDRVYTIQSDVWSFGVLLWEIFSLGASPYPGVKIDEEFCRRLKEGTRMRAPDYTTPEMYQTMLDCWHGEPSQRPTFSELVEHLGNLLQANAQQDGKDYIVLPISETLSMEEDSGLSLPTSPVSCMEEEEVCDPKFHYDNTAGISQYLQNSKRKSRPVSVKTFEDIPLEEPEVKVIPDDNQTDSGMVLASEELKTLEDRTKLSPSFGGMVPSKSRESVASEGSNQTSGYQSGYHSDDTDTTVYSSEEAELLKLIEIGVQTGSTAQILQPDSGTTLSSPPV

Structure (SMILES): CCOC(=O)C1=C(C(F)(F)F)NC2=C(C(=O)CC(C)(C)C2)C1c1ccc(S(=O)(=O)c2ccc(C)cc2)cc1 (stereo not drawn) [Compound 4h, Ethyl 7,7-dimethyl-5-oxo-4–(4-tosylphenyl)-2-(trifluoromethyl)-1,4,5,6,7,8-hexahydroquinoline-3-carboxylate]
IC50 [1]: 41 ± 6 nM

Structure (SMILES): CC1(C)CC(=O)C2=C(C1)NC(N)=C(C(=O)c1ccc(Br)cc1)C2c1ccc(S(=O)(=O)c2ccccc2)cc1 (stereo not drawn) [Compound 4f, 2-Amino-3–(4-bromobenzoyl)-7,7-dimethyl-4–(4-(phenylsulfonyl)phenyl)-4,6,7,8-tetrahydroquinolin-5(1H)-one]
IC50 [1]: 27 ± 14 nM

PDGFR-α inhibition, fold more than sorafenib (PDGFR-α): 1.9 fold | IC50 (PDGFR-α): 0.07 ± 0.01 nM | HER-2 inhibition, folds more potent than Sorafenib (HER-2): about 1.6 fold | IC50 (HER-2): 0.17 ± 0.02 nM | IC50 (VEGFR-2): 0.3 ± 0.06 nM | VEGFR-2 inhibitory effect, fold less than Sorafenib (VEGFR-2): ~1.8 fold | IC50 (EGFR): 0.07 ± 0.02 nM
Structure (SMILES): Cc1ccc(S(=O)(=O)c2ccc(C3C(C(=O)c4ccccc4)=C(N)NC4=C3C(=O)CC(C)(C)C4)cc2)cc1 (stereo not drawn) [Compound 4j, 2-Amino-3-benzoyl-7,7-dimethyl-4–(4-tosylphenyl)-4,6,7,8-tetrahydroquinolin-5(1H)-one]
IC50 [1]: 3 ± 5 nM | IC50 (normal WI38 cells): 48 ± 8 nM | IC50 against WI38 cells, fold higher than IC50 of staurosporine (normal WI38 cells): about 3 fold | early apoptotic effect (MCF-7 cells [2]): 3.27% | late apoptosis percentage (MCF-7 cells [2]): 22.03% | necrosis percent (MCF-7 cells [2]): 9.22% | cell cycle effect in MCF-7 cells (MCF-7 cells [3]): cell cycle disruption at G2/M phase; also recorded: cell cycle arrest at G2/M phase | %G0–G1 (MCF-7 cells [3]): 36.99% | %G2/M (MCF-7 cells [3]): 31.17% | %Pre-G1 (MCF-7 cells [3]): 34.52% | %S (MCF-7 cells [3]): 31.84%

Structure (SMILES): CCOC(=O)C1=C(N)NC2=C(C(=O)CC(C)(C)C2)C1c1ccc(S(=O)(=O)c2ccc(C)cc2)cc1 (stereo not drawn) [Compound 4i, Ethyl 2-amino-7,7-dimethyl-5-oxo-4–(4-tosylphenyl)-1,4,5,6,7,8-hexahydroquinoline-3-carboxylate]
IC50 [1]: 23 ± 3 nM

Structure (SMILES): Cc1ccc(S(=O)(=O)c2ccc(C3C(C(=O)c4ccc(Br)cc4)=C(N)NC4=C3C(=O)CC(C)(C)C4)cc2)cc1 (stereo not drawn) [Compound 4l, 2-Amino-3–(4-bromobenzoyl)-7,7-dimethyl-4–(4-tosylphenyl)-4,6,7,8-tetrahydroquinolin-5(1H)-one]
IC50 [1]: 7 ± 1 nM | fold less potent than staurosporine against MCF-7 ([1]; ratio of IC50 values, MCF-7): 1.4 fold

Structure (SMILES): CC1(C)CC(=O)C2=C(C1)NC(N)=C(C(=O)c1ccccc1)C2c1ccc(S(=O)(=O)c2ccccc2)cc1 (stereo not drawn) [Compound 4d, 2-Amino-3-benzoyl-7,7-dimethyl-4–(4-(phenylsulfonyl)phenyl)-4,6,7,8-tetrahydroquinolin-5(1H)-one]
IC50 [1]: 7 ± 1 nM | fold less potent than staurosporine against MCF-7 ([1]; ratio of IC50 values, MCF-7): 1.4 fold

IC50 (PDGFR-α): 0.21 ± 0.04 nM | IC50 (HER-2): 0.3 ± 0.05 nM | IC50 (VEGFR-2): 1.05 ± 0.02 nM | VEGFR-2 inhibitory effect, fold less than Sorafenib (VEGFR-2): about 6.2 fold | IC50 (EGFR): 0.11 ± 0.03 nM
Structure (SMILES): CCOC(=O)C1=C(C(F)(F)F)NC2=C(C(=O)CC(C)(C)C2)C1c1ccc(S(=O)(=O)c2ccccc2)cc1 (stereo not drawn) [Compound 4b, Ethyl 7,7-dimethyl-5-oxo-4–(4-(phenylsulfonyl)phenyl)-2-(trifluoromethyl)-1,4,5,6,7,8-hexahydroquinoline-3-carboxylate]
IC50 [1]: 2 ± 1 nM | fold more potent than staurosporine against MCF-7 ([1]; ratio of IC50 values, MCF-7): about 2.5 fold | IC50 (normal WI38 cells): 45 ± 13 nM | IC50 against WI38 cells, fold higher than IC50 of staurosporine (normal WI38 cells): about 3 fold | IC50 against WI38 cells, fold higher than IC50 against cancer (MCF-7) cells (normal WI38 cells): 24 fold | early apoptotic effect (MCF-7 cells [2]): 6.15% | late apoptosis percentage (MCF-7 cells [2]): 13.81% | necrosis percent (MCF-7 cells [2]): 4.37% | %G0–G1 (MCF-7 cells [3]): 45.26% | %G2/M (MCF-7 cells [3]): 18.03% | %Pre-G1 (MCF-7 cells [3]): 24.33% | %S (MCF-7 cells [3]): 36.71%

Structure (SMILES): Cc1ccc(C(=O)C2=C(N)NC3=C(C(=O)CC(C)(C)C3)C2c2ccc(S(=O)(=O)c3ccccc3)cc2)cc1 (stereo not drawn) [Compound 4e, 2-Amino-7,7-dimethyl-3–(4-methylbenzoyl)-4–(4-(phenylsulfonyl)phenyl)-4,6,7,8-tetrahydroquinolin-5(1H)-one]
IC50 [1]: 4 ± 2 nM | IC50 (normal WI38 cells): 14.9 ± 3 nM | IC50 against WI38 cells, fold higher than IC50 of staurosporine (normal WI38 cells): approximately equal | IC50 against WI38 cells, fold higher than IC50 against cancer (MCF-7) cells (normal WI38 cells): 4 fold

Structure (SMILES): CCOC(=O)C1=C(N)NC2=C(C(=O)CC(C)(C)C2)C1c1ccc(S(=O)(=O)c2ccccc2)cc1 (stereo not drawn) [Compound 4c, Ethyl 2-amino-7,7-dimethyl-5-oxo-4–(4-(phenylsulfonyl)phenyl)-1,4,5,6,7,8-hexahydroquinoline-3-carboxylate]
IC50 [1]: 15 ± 2 nM

Structure (SMILES): Cc1ccc(C(=O)C2=C(N)NC3=C(C(=O)CC(C)(C)C3)C2c2ccc(S(=O)(=O)c3ccc(C)cc3)cc2)cc1 (stereo not drawn) [Compound 4k, 2-Amino-7,7-dimethyl-3–(4-methylbenzoyl)-4–(4-tosylphenyl)-4,6,7,8-tetrahydroquinolin-5(1H)-one]
IC50 [1]: 4 ± 1 nM | IC50 (normal WI38 cells): 17.6 ± 9 nM | IC50 against WI38 cells, fold higher than IC50 of staurosporine (normal WI38 cells): approximately equal | IC50 against WI38 cells, fold higher than IC50 against cancer (MCF-7) cells (normal WI38 cells): 4 fold

Structure (SMILES): COC(=O)C1=C(C)NC2=C(C(=O)CC(C)(C)C2)C1c1ccc(S(=O)(=O)c2ccccc2)cc1 (stereo not drawn) [Compound 4a, Methyl 2,7,7-trimethyl-5-oxo-4–(4-(phenylsulfonyl)phenyl)-1,4,5,6,7,8-hexahydroquinoline-3-carboxylate]
IC50 [1]: 103 ± 13 nM

Structure (SMILES): CN[C@@H]1C[C@H]2O[C@@](C)([C@@H]1OC)n1c3ccccc3c3c4c(c5c6ccccc6n2c5c31)C(=O)NC4 [Staurosporine, reference compound]
IC50 (normal WI38 cells): 13 ± 2 nM

Structure (SMILES): COC(=O)C1=C(C)NC2=C(C(=O)CC(C)(C)C2)C1c1ccc(S(=O)(=O)c2ccc(C)cc2)cc1 (stereo not drawn) [Compound 4g, Methyl 2,7,7-trimethyl-5-oxo-4–(4-tosylphenyl)-1,4,5,6,7,8-hexahydroquinoline-3-carboxylate]
IC50 [1]: 27 ± 3 nM
